One assay deals with T1, TrxR (Homo sapiens, UniProt Q16881).
T1 sequence (Q16881 1-649): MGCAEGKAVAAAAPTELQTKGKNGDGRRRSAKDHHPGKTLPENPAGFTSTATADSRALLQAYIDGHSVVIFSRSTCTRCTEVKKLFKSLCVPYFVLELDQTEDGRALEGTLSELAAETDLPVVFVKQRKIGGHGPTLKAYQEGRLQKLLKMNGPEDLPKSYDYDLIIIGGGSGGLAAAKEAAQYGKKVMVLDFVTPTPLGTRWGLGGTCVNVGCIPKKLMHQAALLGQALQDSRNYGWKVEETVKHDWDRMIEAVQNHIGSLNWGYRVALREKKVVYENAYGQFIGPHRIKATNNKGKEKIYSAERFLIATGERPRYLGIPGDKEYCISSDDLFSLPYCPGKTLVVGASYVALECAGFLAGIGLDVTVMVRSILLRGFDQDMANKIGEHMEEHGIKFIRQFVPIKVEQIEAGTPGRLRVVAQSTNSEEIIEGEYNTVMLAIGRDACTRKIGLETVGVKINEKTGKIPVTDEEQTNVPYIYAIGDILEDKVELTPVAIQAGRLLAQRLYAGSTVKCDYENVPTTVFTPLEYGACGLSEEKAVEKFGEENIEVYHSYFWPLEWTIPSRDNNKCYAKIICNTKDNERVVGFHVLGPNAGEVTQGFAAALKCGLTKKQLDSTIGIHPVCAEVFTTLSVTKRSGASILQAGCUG
In words: Thioredoxin reductase activity assay (insulin reduction) on lysates of drug-treated breast cancer cells. The class given is cell-based. Here is the method: TrxR enzyme activity was assessed using an insulin reduction assay. Briefly, 2 × 10^6 cells were seeded, in triplicate, in 75c m^2 tissue culture flasks. After 24 h, sub-confluent cells were treated with either IQ9 (0–1000 nM) or 1000 nM auranofin (as a positive control) for 4 or 48 h, then trypsinised, washed, and resuspended in M-PER™ Mammalian Protein Extraction Reagent (ThermoFisher, USA) supplemented with 1X Halt protease inhibitor and EDTA. Protein concentration was determined using the Bradford assay. 80 μg of protein lysates isolated from each treatment conditions and reaction mix (HE buffer (100 mM HEPES pH 7.2, 5 mM EDTA), 20 μM Trx, 1.7 mM insulin, 10 mM β-NADPH) were added to the 96-well plate and incubated for 1 h at 37 °C. The reaction was stopped by adding stop buffer containing 6 M guanidine hydrochloride, 50 mM Tris, and 10 mM DTNB (Sigma, UK), with a final pH of 8.0. The plate was read at room temperature using a BMG Fluostar Optima Microplate Reader at 412 nm wavelength. The TrxR activity was expressed as the percentage of control, no drug-treated.

Assay [1] relates to triple-negative breast cancer cells. In words: Drug-radiation combination clonogenic survival, stated for TNBC cells together. Type of assay: cell-based, human. Particulars: IQ9 for 4 h followed by irradiation, range over TNBC cell lines. Here is the method:
5 × 10^5 cells were seeded in T25 cm^2 tissue culture flasks and incubated overnight. The sub-confluent cells were then treated either for 4-h or 48-h with IQ9 (0–5000 nM) or doxorubicin (10–20 nM). Following drug treatment, cells were collected, counted, and plated at low-density, in triplicate, and incubated, at 37 °C, 5% CO2, undisturbed, for 2 weeks for TNBC cells and 3 weeks for luminal cells, for colony formation. Colonies were fixed (50% methanol in 0.9% saline solution) and stained (0.5% crystal violet solution). Colonies consisting of more than 50 cells were confirmed by microscopy and scored as survivors. The plating efficiency (PE) was calculated as numbers of colonies formed/ numbers of cells plated. For single-agent treatment, drug or radiation, the surviving fraction was calculated as: number of colonies formed/ (numbers of cell plated x PE). […]
Sub-confluent cells were irradiated with a dose of 2, 4, 6, or 8 Gy (at a dose rate of 0.87 Gy/min) using an RS225 x-ray cabinet irradiation system (Xstrahl Limited, UK), fitted with a 0.5 mm Cu filter and run at 195 kV, 10 mA. […] The sensitiser enhancement ratio (SER), calculated by dividing the X-ray dose causing 1% cell survival in the absence of drug treatment by the X-ray dose leading to 1% cell survival in the presence of drug treatment, was used to evaluate the degree of radiosensitisation.

The subject of another assay is Trx. Description: Western blotting of Trx expression. The following applies: 48 h. The class given is cell-based, human. As to the method:
Cells were treated with IQ9 (clonogenic IC50 concentrations) for 48 h, harvested, and resuspended in 1 mL of RIPA buffer (Sigma, UK) supplemented with 1X Halt phosphatase inhibitor cocktail, protease inhibitor cocktail, and EDTA. Samples were run on an SDS-polyacrylamide gel and transferred onto a 0.2 μm nitrocellulose membrane (GE Healthcare). The membrane was then blocked using 5% milk powder in 0.1% PBS/ Tween20, for 1 h at room temperature and then incubated with primary antibody overnight at 4 °C. Anti-β-actin antibody (Abcam) was used as a loading control. Primary antibodies were rabbit anti-human Trx (Abcam; 1:1000), mouse anti-human antibody (Abcam; 1:500), and rabbit anti-human Txnip (Abcam; 1:500). For Trx and Txnip, bands were detected using an Odyssey FC Imager (LI-COR). Images were obtained and fluorescence intensity quantified using Image Studio Software (version 4). The signals for Trx and Txnip were normalised against β-actin. For TrxR, bands were detected using an Amersham Enhanced Chemiluminescence system (GE Healthcare).
(A western blot detects proteins with antibodies after separation by electrophoresis.)

The values that follow come from PMC8426295, “Cytotoxic and radiosensitising effects of a novel thioredoxin reductase inhibitor in breast cancer” (Investigational New Drugs, 2021).

A word on the inhibition: it is the relative decrease from the control value, in per cent.

On to `COC1=CC(=O)c2c(c(COc3c(F)cc(F)cc3F)cn2C)C1=O` [IQ9], for which the “inhibition of TrxR activity” value against TrxR (1000 nM, 4 h, all TNBC cell lines) is on record as “complete inhibition”. In addition, the inhibition at 1 µM against TrxR (1000 nM, 4 h, luminal cell lines) is around 70%. The “inhibition in TrxR activity” value against TrxR (48 h exposure, T47D) is “no significant inhibition”. Moreover, the “SER values (sensitiser enhancement ratios)” value in assay [1] is 1.20–1.43. Besides, the “expression of Trx” value is given as “increased expression” in the assay on Trx (MDA-MB-231, clonogenic IC50 concentration, P = 0.003) and “no effect” with Trx (the other four cell lines (MDA-MB-468, MDA-MB-436, T47D, MCF-7), clonogenic IC50 concentration).
